14 compounds from patent publication US20230234943A1, “TREX1 INHIBITORS AND USES THEREOF” (Tempest Therapeutics, Inc., priority 2020, published 2023) can be followed below.

pIC50: −log10 of the molar value.

The experiment deals with T1, Human TREX1 enzyme (amino acids 1-242) (Homo sapiens, UniProt Q9NSU2).
T1 construct: Human TREX1 enzyme (amino acids 1-242)
T1 sequence (Q9NSU2 1-242): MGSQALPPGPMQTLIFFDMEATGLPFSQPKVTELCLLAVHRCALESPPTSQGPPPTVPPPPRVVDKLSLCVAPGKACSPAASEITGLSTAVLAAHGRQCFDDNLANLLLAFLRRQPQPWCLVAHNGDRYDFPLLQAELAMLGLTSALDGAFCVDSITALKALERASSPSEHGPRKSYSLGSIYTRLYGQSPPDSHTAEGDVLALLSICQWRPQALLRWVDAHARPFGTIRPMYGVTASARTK
Description: Human TREX1 enzymatic assay with dsDNA native oligonucleotide (Picogreen fluorescence). The class given is biochemical. The note with it: 2 mM dithiothreitol in assay buffer; 50 nM dsDNA oligonucleotide; 30 min preincubation at 25° C.; read-out: TREX1/Human + DTT IC50 AVG. The method, then:
Example A. Human TREX1 Enzymatic Assay with dsDNA Native Oligonucleotide
Human TREX1 enzyme (amino acids 1-242) was diluted in assay buffer (20 mM Tris pH 7.7, 5 mM MgCl2, 0.01% human serum albumin, 0.01% Brij™-35, 2 mM dithiothreitol) to a final concentration of 0.8 nM to 0.16 nM and added to a 96-well low-binding polypropylene plate. Test compounds were diluted in DMSO to 50× concentration (final DMSO concentration in reaction mixture of 2%) and added to the wells with a concentration ranging from 300 μM to 13 nM or 30 μM to 1.5 nM. The reaction mixtures were incubated for 30 minutes at 25° C. and a solution of annealed dsDNA oligonucleotide (5′-[…]-3′ and Comp: 5′-[…]-3′) was added to a final concentration of 50 nM. The reaction mixtures were incubated at 25° C. for 5-15 minutes and subsequently quenched by transferring part of the assay reaction to a solution of 100 mM ethylenediaminetetraacetic acid and 1:100 Picogreen™ (final concentration of […]) in a black plate with an opaque bottom. The fluorescence ([…]) was measured using a Molecular Devices SpectraMax plate reader. Wells containing oligonucleotide but no TREX1 enzyme were used as negative controls. Wells containing oligonucleotide, TREX1 enzyme, and DMSO were used as positive controls.
Consider `COc1cc(-c2nc3c(C)cccc3[nH]2)cc(O)c1O` [Example 21, 3-methoxy-5-(4-methyl-1H-benzo[d]imidazol-2-yl)benzene-1,2-diol], for which the pIC50 is below 4.00.
Next, `COc1cc(-c2nc3cc(N4CCN(C(=O)CCCC[C@@H]5SC[C@@H]6NC(=O)N[C@@H]65)CC4)ccc3[nH]2)cc(O)c1O` [Example 23, (3aS,4S,6aR)-4-(5-(4-(2-(3,4-dihydroxy-5-methoxyphenyl)-1H-benzo[d]imidazol-5-yl)piperazin-1-yl)-5-oxopentyl)tetrahydro-1H-thieno[3,4-d]imidazol-2(3H)-one]: 5.00 to 6.00; `COc1cc(-c2nc3cc(N4CCN(C)CC4)ccc3[nH]2)cc(O)c1O` [Example 24, 3-methoxy-5-(5-(4-methylpiperazin-1-yl)-1H-benzo[d]imidazol-2-yl)benzene-1,2-diol]: below 4.00; `COc1cc(-c2nc3cc(N4CCOCC4)ccc3[nH]2)cc(O)c1O` [Example 25, 3-methoxy-5-(5-morpholino-1H-benzo[d]imidazol-2-yl)benzene-1,2-diol]: below 4.00.
In the case of `COc1cc(-c2nc3cc(N4CCN(C(C)=O)CC4)ccc3[nH]2)cc(O)c1O` [Example 26, 1-(4-(2-(3,4-dihydroxy-5-methoxyphenyl)-1H-benzo[d]imidazol-5-yl)piperazin-1-yl)ethanone] it was below 4.00; in that of `COc1cc(-c2nc3cc(N4CCN(C(C)=O)CC4)ccc3n2C(C)=O)cc(O)c1O` [Example 27, 1-(4-(1-acetyl-2-(3,4-dihydroxy-5-methoxyphenyl)-1H-benzo[d]imidazol-5-yl)piperazin-1-yl)ethanone], 4.00 to 5.00; in that of `COc1cc(-c2nc3cc(N4CCC4)ccc3n2C2CCOC2)cc(C(=O)O)c1O` (centres unmarked) [Example 28, 5-(5-(azetidin-1-yl)-1-(tetrahydrofuran-3-yl)-1H-benzo[d]imidazol-2-yl)-2-hydroxy-3-methoxybenzoic acid], 4.00 to 5.00.
In the case of `CCn1c(-c2cc(O)c(O)c(OC(C)C)c2)nc2cccnc21` [Example 29, 5-(3-ethyl-3H-imidazo[4,5-b]pyridin-2-yl)-3-isopropoxybenzene-1,2-diol] it was below 4.00.
Turning to `COc1cc(-c2nc3cc(N4CCN(C(=O)c5ccccc5)CC4)ccc3[nH]2)c(C(F)(F)F)c(O)c1O` [Example 30, (4-(2-(3,4-dihydroxy-5-methoxy-2-(trifluoromethyl)phenyl)-1H-benzo[d]imidazol-5-yl)piperazin-1-yl)(phenyl)methanone], the pIC50 was 4.00 to 5.00.
In the case of `COc1cc(-c2nc3cc(N4CCN(C(=O)c5ccccc5)CC4)ccc3[nH]2)cc(O)c1O` [Example 31, (4-(2-(3,4-dihydroxy-5-methoxyphenyl)-1H-benzo[d]imidazol-5-yl)piperazin-1-yl)(phenyl)methanone] it was 5.00 to 6.00; in that of `COc1cc(-c2nc3cc(N4CCN(C(=O)c5cccnc5)CC4)ccc3[nH]2)cc(O)c1O` [Example 32, (4-(2-(3,4-dihydroxy-5-methoxyphenyl)-1H-benzo[d]imidazol-5-yl)piperazin-1-yl)(pyridin-3-yl)methanone], 4.00 to 5.00; in that of `C=CCCC(=O)N1CCN(c2ccc3[nH]c(-c4cc(O)c(O)c(OC)c4)nc3c2)CC1` [Example 33, 1-(4-(2-(3,4-dihydroxy-5-methoxyphenyl)-1H-benzo[d]imidazol-5-yl)piperazin-1-yl)pent-4-en-1-one], 4.00 to 5.00.
In the case of `C=CCCC(=O)N1CCN(c2ccc3c(c2)nc(-c2cc(O)c(O)c(OC)c2)n3C(=O)CCC=C)CC1` [Example 34, 1-(4-(2-(3,4-dihydroxy-5-methoxyphenyl)-1-(pent-4-enoyl)-1H-benzo[d]imidazol-5-yl)piperazin-1-yl)pent-4-en-1-one] it was 4.00 to 5.00; in that of `COc1cc(-c2nc3cc(N4CCN(C)CC4)ccc3n2C)cc(O)c1O` [Example 35, 3-methoxy-5-(1-methyl-5-(4-methylpiperazin-1-yl)-1H-benzo[d]imidazol-2-yl)benzene-1,2-diol], below 4.00.
